{"source": "paper PMC10895678", "about": "(Journal of Medicinal Chemistry, 2024)", "system": "HepG2 cells", "assay": "HepG2 mitochondrial dysfunction (Glu/Gal cytotoxicity, MTT)", "format": "cell-based", "conditions": "glucose medium", "experimental": "Compounds were solubilized to 30 mM in DMSO. The BGAz compounds were added to the HepG2 cell model in a 96-well microplate in half log dilutions from 100–0.0003 μM (final DMSO concentration 0.3%) using both glucose (DMEM consisting of 25 mM glucose) and galactose (DMEM consisting of 10 mM galactose) media. The compounds were incubated with the cell line for 24 h at 37 °C in a humidified CO2 tissue culture incubator, followed by cell viability staining with MTT (3-(4,5-dimethylthiazol-2-yl)-2.5-diphenyltetrazolium bromide) conversion to the Formazan product, determined by absorbance measurement. The cell viability IC50 was determined in HepG2 glucose and metabolism-modified HepG2 galactose, and the fold change difference between the Glu/Gal IC50 was determined. All experiments were performed in duplicate with the mitochondrial toxicity controls rotenone and Antimycin A and the cytotoxin control tamoxifen.", "data": [{"smiles": "Brc1cc(Br)cc(C2CC(CN3CCCC3)N2Cc2ccccc2Br)c1", "note": "(stereo not shown) [BGAz-004]", "values": [{"measurement": "HepG2 cytotoxicity (in words)", "value": "negligible effect"}]}]}
